Test results from patent US8178522B2, “Thiazoles” (Hoffmann-La Roche Inc., priority 2009, dated 2012).

What follows are molecules tested against T1, GABA A α5 (α5β3γ2) (Homo sapiens, UniProt P18507+P31644) (assay: [3H]flumazenil competition binding, human GABA A α5 receptor). Conditions: not given.
T1 construct: expressed in transfected cells; host or cells: HEK293, transiently transfected; membrane preparation
Procedure, shortened: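 Competition with [3H]flumazenil at membranes from HEK293 cells transiently expressing human α5β3γ2, in Krebs-tris buffer pH 7.5. Equilibrium 1 hour at 4° C, filtration with ice-cold 50 mM Tris wash, scintillation counting. Ki values are means of two determinations.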

Structure (SMILES) | Ki [nM]
Cc1onc(-c2ccc(F)cn2)c1/C=C/c1ncc(C(=O)NC2CC2)s1 [Example 79, 2-{(E)-2-[3-(5-Fluoro-pyridin-2-yl)-5-methyl-isoxazol-4-yl]-vinyl}-thiazole-5-carboxylic acid cyclopropylamide] | 4.1
Cc1onc(-c2ccc(F)cn2)c1/C=C/c1ncc(C(=O)NCC(F)(F)F)s1 [Example 84, 2-{(E)-2-[3-(5-Fluoro-pyridin-2-yl)-5-methyl-isoxazol-4-yl]-vinyl}-thiazole-5-carboxylic acid (2,2,2-trifluoro-ethyl)-amide] | 4.1

Same assay, conditions: human receptor α5β3γ2 transiently transfected in HEK293 cells; competition for [3H]flumazenil 0.5 nM; 1 hour at 4° C.; means of two determinations; read-out: hKi GABA A α5

Structure (SMILES) | Ki [nM]
CCCCc1noc(C)c1CCc1ncc(C(=O)NC(C)CO)s1 (centres unmarked) [Example 58, 2-[2-(3-Butyl-5-methyl-isoxazol-4-yl)-ethyl]-thiazole-5-carboxylic acid (2-hydroxy-1-methyl-ethyl)-amide] | 50.9
CCCCc1noc(C)c1CCc1ncc(C(=O)NC2CCOCC2)s1 [Example 59, 2-[2-(3-Butyl-5-methyl-isoxazol-4-yl)-ethyl]-thiazole-5-carboxylic acid (tetrahydro-pyran-4-yl)-amide] | 32.5
CCCCc1noc(C)c1CCc1ncc(C(=O)NC2CCOC2)s1 (centres unmarked) [Example 60, 2-[2-(3-Butyl-5-methyl-isoxazol-4-yl)-ethyl]-thiazole-5-carboxylic acid (tetrahydro-furan-3-yl)-amide] | 35.5
CCCCc1noc(C)c1CCc1ncc(C(=O)N[C@@H](C)CO)s1 [Example 61, 2-[2-(3-Butyl-5-methyl-isoxazol-4-yl)-ethyl]-thiazole-5-carboxylic acid ((S)-2-hydroxy-1-methyl-ethyl)-amide] | 43.6
CCCCc1noc(C)c1CCc1ncc(C(=O)NCC(C)O)s1 (centres unmarked) [Example 62, 2-[2-(3-Butyl-5-methyl-isoxazol-4-yl)-ethyl]-thiazole-5-carboxylic acid (2-hydroxy-propyl)-amide] | 45
Cc1onc(-c2ccccc2)c1/C=C/c1ncc(C(=O)NCCO)s1 [Example 67, 2-[(E)-2-(5-Methyl-3-phenyl-isoxazol-4-yl)-vinyl]-thiazole-5-carboxylic acid (2-hydroxy-ethyl)-amide] | 2.8
Cc1nc(/C=C/c2c(-c3ccc(F)cn3)noc2C)sc1C(=O)NC(C)(C)CO [Example 74, 2-{(E)-2-[3-(5-Fluoro-pyridin-2-yl)-5-methyl-isoxazol-4-yl]-vinyl}-4-methyl-thiazole-5-carboxylic acid (2-hydroxy-1,1-dimethyl-ethyl)-amide] | 8.4
Cc1nc(/C=C/c2c(-c3ccc(F)cn3)noc2C)sc1C(N)=O [Example 76, 2-{(E)-2-[3-(5-Fluoro-pyridin-2-yl)-5-methyl-isoxazol-4-yl]-vinyl}-4-methyl-thiazole-5-carboxylic acid amide] | 4.1
Cc1onc(-c2ccc(F)cn2)c1/C=C/c1ncc(C(=O)NC2CCOCC2)s1 [Example 77, 2-{(E)-2-[3-(5-Fluoro-pyridin-2-yl)-5-methyl-isoxazol-4-yl]-vinyl}-thiazole-5-carboxylic acid (tetrahydro-pyran-4-yl)-amide] | 3.5
Cc1onc(-c2ccc(F)cn2)c1/C=C/c1ncc(C(=O)NC(C)C)s1 [Example 78, 2-{(E)-2-[3-(5-Fluoro-pyridin-2-yl)-5-methyl-isoxazol-4-yl}-vinyl]-thiazole-5-carboxylic acid isopropylamide] | 2.9
Cc1onc(-c2ccc(F)cn2)c1/C=C/c1ncc(C(=O)NC(C)(C)CO)s1 [Example 80, 2-{(E)-2-[3-(5-Fluoro-pyridin-2-yl)-5-methyl-isoxazol-4-yl]-vinyl}-thiazole-5-carboxylic acid (2-hydroxy-1,1-dimethyl-ethyl)-amide] | 17.4
Cc1onc(-c2ccc(F)cn2)c1/C=C/c1ncc(C(N)=O)s1 [Example 81, 2-{(E)-2-[3-(5-Fluoro-pyridin-2-yl)-5-methyl-isoxazol-4-yl]-vinyl}-thiazole-5-carboxylic acid amide] | 5.5
Cc1onc(-c2ccc(F)cn2)c1/C=C/c1ncc(C(=O)NCC2CC2)s1 [Example 82, 2-{(E)-2-[3-(5-Fluoro-pyridin-2-yl)-5-methyl-isoxazol-4-yl]-vinyl}-thiazole-5-carboxylic acid cyclopropylmethyl-amide] | 4.7
Cc1onc(-c2ccc(F)cn2)c1/C=C/c1ncc(C(=O)N2CCS(=O)(=O)CC2)s1 [Example 83, (1,1-Dioxothiomorpholin-4-yl)-(2-{(E)-2-[3-(5-fluoro-pyridin-2-yl)-5-methyl-isoxazol-4-yl]-vinyl}-thiazol-5-yl)-methanone] | 27.4
Cc1onc(-c2ccc(F)cn2)c1/C=C/c1ncc(C(=O)NCCO)s1 [Example 85, 2-{(E)-2-[3-(5-Fluoro-pyridin-2-yl)-5-methyl-isoxazol-4-yl]-vinyl}-thiazole-5-carboxylic acid (2-hydroxy-ethyl)-amide] | 5.1
Cc1onc(-c2ccc(F)cn2)c1/C=C/c1ncc(C(=O)N2CCOCC2)s1 [Example 86, (2-{(E)-2-[3-(5-Fluoro-pyridin-2-yl)-5-methyl-isoxazol-4-yl]-vinyl}-thiazol-5-yl)-morpholin-4-yl-methanone] | 31.2
CCNC(=O)c1cnc(/C=C/c2c(-c3ccc(F)cn3)noc2C)s1 [Example 87, 2-{(E)-2-[3-(5-Fluoro-pyridin-2-yl)-5-methyl-isoxazol-4-yl]-vinyl}-thiazole-5-carboxylic acid ethylamide] | 4
CNC(=O)c1cnc(/C=C/c2c(-c3ccc(F)cn3)noc2C)s1 [Example 88, 2-{(E)-2-[3-(5-Fluoro-pyridin-2-yl)-5-methyl-isoxazol-4-yl]-vinyl}-thiazole-5-carboxylic acid methylamide] | 6.2
Cc1onc(-c2ccc(F)cn2)c1/C=C/c1ncc(C(=O)N2CCSCC2)s1 [Example 89, (2-{(E)-2-[3-(5-Fluoro-pyridin-2-yl)-5-methyl-isoxazol-4-yl]-vinyl}-thiazol-5-yl)-thiomorpholin-4-yl-methanone] | 22.8
Cc1nc(/C=C/c2conc2-c2ccc(F)cn2)sc1C(=O)NC1CCOCC1 [Example 90, 2-{(E)-2-[3-(5-Fluoro-pyridin-2-yl)-isoxazol-4-yl]-vinyl}-4-methyl-thiazole-5-carboxylic acid (tetrahydro-pyran-4-yl)-amide] | 24.8
Cc1nc(/C=C/c2conc2-c2ccc(F)cn2)sc1C(=O)NC1CC1 [Example 91, 2-{(E)-2-[3-(5-Fluoro-pyridin-2-yl)-isoxazol-4-yl]vinyl}-4-methyl-thiazole-5-carboxylic acid cyclopropylamide] | 35.3
Cc1nc(/C=C/c2conc2-c2ccc(F)cn2)sc1C(=O)NCC1CC1 [Example 92, 2-{(E)-2-[3-(5-Fluoro-pyridin-2-yl)-isoxazol-4-yl]-vinyl}-4-methyl-thiazole-5-carboxylic acid cyclopropylmethyl-amide] | 40.4

Further lines, results first:

Ki [nM] | Structure (SMILES)
1.2 | Cc1onc(-c2ccccc2)c1/C=C/c1ncc(C(=O)NC2CCOCC2)s1 [Example 63, 2-[(E)-2-(5-Methyl-3-phenyl-isoxazol-4-yl)-vinyl]-thiazole-5-carboxylic acid (tetra-hydro-pyran-4-yl)-amide]
1.3 | Cc1onc(-c2ccccc2)c1/C=C/c1ncc(C(=O)NC(C)C)s1 [Example 65, 2-[(E)-2-(5-Methyl-3-phenyl-isoxazol-4-yl)-vinyl]-thiazole-5-carboxylic acid isoprop-ylamide]
1.8 | Cc1onc(-c2ccccc2)c1/C=C/c1ncc(C(=O)NC(C)CO)s1 (centres unmarked) [Example 66, 2-[(E)-2-(5-Methyl-3-phenyl-isoxazol-4-yl)-vinyl]-thiazole-5-carboxylic acid (2-hydroxy-1-methyl-ethyl)-amide]
0.4 | Cc1nc(/C=C/c2c(-c3ccccc3)noc2C)sc1C(=O)NC(C)C [Example 68, 4-Methyl-2-[(E)-2-(5-methyl-3-phenyl-isoxazol-4-yl)-vinyl]-thiazole-5-carboxylic acid isopropylamide]
0.3 | Cc1nc(/C=C/c2c(-c3ccccc3)noc2C)sc1C(=O)NC1CCOC1 (centres unmarked) [Example 69, 4-Methyl-2-[(E)-2-(5-methyl-3-phenyl-isoxazol-4-yl)-vinyl]-thiazole-5-carboxylic acid (tetrahydro-furan-3-yl)-amide]
0.5 | Cc1nc(/C=C/c2c(-c3ccccc3)noc2C)sc1C(=O)NCCO [Example 70, 4-Methyl-2-[(E)-2-(5-methyl-3-phenyl-isoxazol-4-yl)-vinyl]-thiazole-5-carboxylic acid (2-hydroxy-ethyl)-amide]
1.5 | Cc1nc(/C=C/c2c(-c3ccc(F)cn3)noc2C)sc1C(=O)NC(C)C [Example 71, 2-{(E)-2-[3-(5-Fluoro-pyridin-2-yl)-5-methyl-isoxazol-4-yl]-vinyl}-4-methyl-thiazole-5-carboxylic acid isopropylamide]
0.6 | Cc1nc(/C=C/c2c(-c3ccc(F)cn3)noc2C)sc1C(=O)NC1CCOCC1 [Example 72, 2-{(E)-2-[3-(5-Fluoro-pyridin-2-yl)-5-methyl-isoxazol-4-yl]-vinyl}-4-methyl-thiazole-5-carboxylic acid (tetrahydro-pyran-4-yl)-amide]
1.6 | Cc1nc(/C=C/c2c(-c3ccc(F)cn3)noc2C)sc1C(=O)NC1CC1 [Example 73, 2-{(E)-2-[3-(5-Fluoro-pyridin-2-yl)-5-methyl-isoxazol-4-yl]-vinyl}-4-methyl-thiazole-5-carboxylic acid cyclopropylamide]
1.8 | Cc1nc(/C=C/c2c(-c3ccc(F)cn3)noc2C)sc1C(=O)NCC1CC1 [Example 75, 2-{(E)-2-[3-(5-Fluoro-pyridin-2-yl)-5-methyl-isoxazol-4-yl]-vinyl}-4-methyl-thiazole-5-carboxylic acid cyclopropylmethyl-amide]
1.9 | CCCCc1noc(C)c1/C=C/c1nc(C)c(C(=O)NC(C)C)s1 [Example 93, 2-[(E)-2-(3-Butyl-5-methyl-isoxazol-4-yl)-vinyl]-4-methyl-thiazole-5-carboxylic acid isopropylamide]
